In test [1] the test system is pulmonary artery rings. Briefly: Ex vivo myography of pulmonary artery rings after chronic SUL-150 administration, phenylephrine-induced vasoconstriction. Format: in vivo, rat. Conditions: for EC50: Rattus norvegicus, 840 h.
For test [2], the system named is pulmonary artery rings. Kind of test: Ex vivo myography of pulmonary artery rings, acute SUL-150 pre-incubation, phenylephrine-induced vasoconstriction. On the set-up: species or system rat. As to conditions: vehicle pre-incubation; for EC50: Rattus norvegicus. The protocol:
The fourth-degree branching intralobar pulmonary arteries were carefully dissected under a Leica S4E stereomicroscope as described before. Arterial ring segments (2 mm length) were mounted in a Mulvany-type wire myograph system (model #610M, Danish Myo Technology, Aarhus, Denmark) using Ø40 µm steel wire. Rings were preserved in myography chambers filled with aerated Krebs buffer (pH 7.4) at 37 °C. After 20 min equilibration, rings were stretched to 1.8 kPa using the DMT Normalization Procedure and allowed to equilibrate for an additional 20 min. Analogue–digital signal conversion was performed using PowerLab 8/30, and a myogram was recorded in PowerLab Chart v 5.3 (AD Instruments, Oxford, UK). To assess the acute effects of SUL-150 on vasoconstriction, arterial rings were pre-constricted with 60 mM KCl and, following washout and stabilization, incubated with vehicle (0.1% DMSO) or SUL-150 (10^−4 M) for 20 min. Next, constriction responses to phenylephrine (phenylephrine, Sigma-Aldrich, St. Louis, MO, USA) were recorded in the dose range of 3 × 10^−9 to 3 × 10^−5 M. To assess the chronic effects of SUL-150 treatment, a similar protocol was followed, leaving out the preincubation with vehicle or SUL-150. Isometric responses were calculated as % of maximal KCl-induced constriction, and dose–response curves were recorded to determine the efficacy (Emax) and potency (EC50) of phenylephrine to induce vasoconstriction.

The subject of test [3] is neonatal rat cardiomyocytes. Kind of test: In vitro hypertrophy reporter assay in phenylephrine-treated cardiomyocytes. Format: cell-based. As to conditions: vehicle pre-incubation, phenylephrine 24 h. The protocol: Cultures of neonatal rat cardiomyocytes were prepared from 1–3-day-old Wistar rats and adenovirally transformed with hypertrophy reporter construct as described elsewhere. Cardiomyocytes were pre-incubated with SUL-150 (3 × 10^−5 M) or vehicle for 30 min and subsequently stimulated with phenylephrine in the dose range of 10^−8 to 10^−4 M for 24 h. Cells were lysed in passive lysis buffer (Promega, Madison, WI, USA), and […] intensity of the lysate was recorded in an EnVision 2102 plate reader (Perkin Elmer, Waltham, MA, USA).
In general terms: A reporter such as luciferase makes a cellular process visible.

The mark [4] stands for this setting: rings of sham control rats (day 35, chronic study).
[5] abbreviates: rings of vehicle-treated PAH rats (day 35, chronic study).
[6] abbreviates: pulmonary artery rings of PAH rats.
Where [7] appears, read: pulmonary artery rings of sham rats.

The results in this text go back to publication PMC12346692, “SUL-150 Limits Vascular Remodeling and Ventricular Failure in Pulmonary Arterial Hypertension” (International Journal of Molecular Sciences, 2025).

For the molecule `CNC[C@H](O)c1cccc(O)c1` [phenylephrine], the EC50 (commonly the concentration giving half of the maximal effect) in test [1] (setting [4]) was found to be 0.0898 µM; in test [1] (setting [5]), 1.24 µM; in test [2] (setting [6]), 1.08 µM; in test [2] (setting [7]) it was 0.174 µM; in test [3] (Rattus norvegicus, Cardiomyocyte) it was 1.52 µM. Moreover, the “Emax of phenylephrine-induced vasoconstriction” value in test [1] (setting [4]) is reported as 33.0 ± 2.3 % of max; in test [1] (setting [5]), 71.9 ± 9.2 % of max; in test [2] (setting [6]), 43.4 % of max; in test [2] (setting [7]), 34.7 % of max. Further, in test [3], the “Emax of phenylephrine in hypertrophy reporter” value amounted to 3.93 RFU.
